In patent US5254677A, “β-galactosidase substrates for cedia” (Boehringer Mannheim GmbH, priority 1990, dated 1993):

Tests used:
[1] = Absorption maxima of the chromogen and associated extinction coefficients; type: physicochemical; details: 0.1 mole/l. potassium phosphate buffer (pH 7.0); for ε (extinction coefficient): at the absorption maximum of the chromogen
Description: 1. Wavelengths of the absorption maxima of the chromogen and the associated extinction coefficients (ε).
Measurement in 0.1 mole/l. potassium phosphate buffer (pH 7.0) at the absorption maximum of the chromogen.

[2] = system: β-galactosidase formed from EA22 enzyme acceptor and ED4-thyroxine T4 conjugate; test: T4/CEDIA test (thyroxine T4 as hapten, monoclonal antibodies against T4), gradient of the calibration curve; type: biochemical; details: Hitachi 704, 37° C., substrate 1 mg./ml., 376 or 415 nm, percentage of 2-nitrophenyl-β-galactoside (=100%)
Description: 3. Evaluation in the T4/CEDIA (CEDIA with thyroxine T4 as hapten and monoclonal antibodies against thyroxine T4).
The criterion for the evaluation of the individual substrates was the gradient of the calibration curve.
I) Carrying out of the T4/CEDIA test
Definitions: EA=enzyme acceptor; ED=enzyme donor; EA22 =cloned enzyme acceptor for CEDIA; ED4 =cloned enzyme donor for CEDIA. […] The amino acid sequences of these polypeptides are there disclosed.
ΔE/min. was measured in the interval of 9-10 minutes.
Calibration curves were produced for all substrates. Of these curves, the gradients were compared. [formula]
Gradient expressed as percentage value of the 2-nitrophenyl-β-galactoside (=100%) for T4/CEDIA.

[3] = target: T1, β-galactosidase (Escherichia coli, UniProt P00722); test: Enzyme activity: extinction change per minute with identical amounts of β-galactosidase (sensitivity and enzymatic cleavage rate of substrates); type: biochemical; details: measured at the absorption maximum of the particular chromogen (405/376/384/408 nm), 0.05M potassium phosphate buffer pH 7.0
T1 construct: not the CEDIA donor/acceptor fragments
Description: 2. Sensitivity comparison of the substrates and of their enzymatic cleavage rate.
The extinction change per minute (mE/min.) in the region of the absorption maximum (see Table 1) of the particular chromogen was determined with the use of identical amounts of the enzyme β-galactosidase: for the precise conditions see Example 4, II a) and b).
1) 0.05M potassium phosphate buffer, pH 7.0
2) 10 mmole/liter magnesium chloride solution
3) 69.8% (v/v) mercaptoethanol solution
4) p-galactosidase (Boehringer Mannheim GmbH, order No. 105 031)
5) substrate, 5.9 mg./ml. in solution a)
Pre-incubation: the following substances were pipetted into plastic cuvettes: […]
After mixing, the reaction was initiated: […]
Δ/min. was calculated from the linear range.

[4] = system: β-galactosidase formed from EA22 enzyme acceptor and ED4-thyroxine T4 conjugate; details: prior art substrate of U.S. Pat. No. 4,708,929; cited from earlier work

T1 sequence (P00722 2-1024): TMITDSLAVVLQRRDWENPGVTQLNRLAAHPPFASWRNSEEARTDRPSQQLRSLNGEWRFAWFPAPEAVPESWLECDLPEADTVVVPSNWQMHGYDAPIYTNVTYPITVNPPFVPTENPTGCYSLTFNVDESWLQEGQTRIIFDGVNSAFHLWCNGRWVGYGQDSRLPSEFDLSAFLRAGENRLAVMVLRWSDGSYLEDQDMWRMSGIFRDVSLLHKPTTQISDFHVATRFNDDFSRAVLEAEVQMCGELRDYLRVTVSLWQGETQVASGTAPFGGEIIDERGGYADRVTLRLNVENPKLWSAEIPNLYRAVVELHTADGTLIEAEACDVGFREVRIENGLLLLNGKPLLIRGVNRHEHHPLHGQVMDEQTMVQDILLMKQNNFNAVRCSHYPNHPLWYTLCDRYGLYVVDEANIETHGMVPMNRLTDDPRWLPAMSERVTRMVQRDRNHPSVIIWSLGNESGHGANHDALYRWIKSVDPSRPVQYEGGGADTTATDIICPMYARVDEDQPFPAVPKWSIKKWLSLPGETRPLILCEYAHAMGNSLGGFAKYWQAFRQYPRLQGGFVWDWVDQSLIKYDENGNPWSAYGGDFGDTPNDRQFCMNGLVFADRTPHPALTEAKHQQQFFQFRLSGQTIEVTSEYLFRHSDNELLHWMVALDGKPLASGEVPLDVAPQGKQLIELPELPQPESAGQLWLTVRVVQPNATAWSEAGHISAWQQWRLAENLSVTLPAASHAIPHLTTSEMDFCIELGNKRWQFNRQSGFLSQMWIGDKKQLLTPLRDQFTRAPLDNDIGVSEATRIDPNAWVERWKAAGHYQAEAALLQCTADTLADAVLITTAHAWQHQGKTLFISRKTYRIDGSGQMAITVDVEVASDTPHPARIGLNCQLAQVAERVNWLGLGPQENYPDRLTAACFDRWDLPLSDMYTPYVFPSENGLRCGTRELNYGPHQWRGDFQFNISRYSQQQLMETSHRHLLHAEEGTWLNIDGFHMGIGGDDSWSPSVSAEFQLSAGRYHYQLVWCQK

SMILES | lambda max [1] [nm] | ε (extinction coefficient) [1] [L/mol/cm] | relative gradient of the calibration curve [2] [%] | extinction change per minute [3] [mE/min.] | sensitivity as chromogenic enzyme substrate for CEDIA [4]
O=[N+]([O-])c1ccccc1O [2-nitrophenol] | 408 | 2040 |  |  | 
N#Cc1cc([N+](=O)[O-])ccc1O[C@@H]1O[C@H](CO)[C@H](O)[C@H](O)[C@H]1O [Example 2-CN-4-NPG, 2-cyano-4-nitrophenyl-β-D-galactopyranoside] |  |  | 561 | 0.150 | 
O=[N+]([O-])c1ccc(O)c(C(F)(F)F)c1 [2-CF3-4-nitrophenol, 2-Trifluoromethyl-4-nitrophenol] | 384 | 18800 |  |  | 
O=[N+]([O-])c1ccc(O[C@@H]2O[C@H](CO)[C@H](O)[C@H](O)[C@H]2O)c(Cl)c1 [Example 2-Cl-4-NPG, 2-chloro-4-nitrophenyl-β-D-galactopyranoside, reference compound] |  |  | 494 | 0.085 | 
N#Cc1cc([N+](=O)[O-])ccc1O [2-CN-4-nitrophenol, 2-Hydroxy-5-nitrobenzonitrile] | 376 | 15700 |  |  | 
O=[N+]([O-])c1ccc(O)c(Cl)c1 [2-Cl-4-nitrophenol] | 405 | 16600 |  |  | 
O=[N+]([O-])c1ccccc1O[C@@H]1O[C@H](CO)[C@H](O)[C@H](O)[C@H]1O [oNPG, 2-nitrophenyl-β-D-galactopyranoside, reference compound] |  |  | 100 | 0.024 | low sensitivity
O=[N+]([O-])c1ccc(O[C@@H]2O[C@H](CO)[C@H](O)[C@H](O)[C@H]2O)c(C(F)(F)F)c1 [Example 2-CF3-4-NPG, 2-trifluoromethyl-4-nitrophenyl-β-D-galactopyranoside] |  |  | 528 | 0.109 | 
